The record followed here is ChEMBL document CHEMBL1121820, “Synthesis and antitumor activity of simple vinyl and alpha-methylene-gamma-butyrolactone sulfonate esters and silyl enol ethers” (1981).

Structures are written as SMILES.

The subject of test [1] is P388. In words: Compound was studied in P388 test system for the antitumor activity expressed as number of animals survived/Number of animals tested at a dose of 100 mg/kg; 6/6. The test is classed as functional, Mus musculus.
In test [2] the test system is P388. In words: Compound was studied in P388 test system for the antitumor activity expressed as percent maximum life span of animals at a dose of 100 mg/kg. The following applies: Mus musculus. The test is classed as functional.
Test [3] deals with P388. In words: Compound was studied in P388 test system for the antitumor activity expressed as number of animals survived/Number of animals tested at a dose of 50 mg/kg; 6/6. It is filed as functional, Mus musculus.
Test [4] deals with P388. In words: Compound was studied in P388 test system for the antitumor activity expressed as percent maximum life span of animals at a dose of 50 mg/kg. The test is classed as functional. The following applies: Mus musculus.
Test [5] has as its system P388. The test is described as follows: Compound was studied in P388 test system for the antitumor activity expressed as number of animals survived/Number of animals tested at a dose of 200 mg/kg; 6/6. The test is classed as functional, Mus musculus.
Test [6] deals with P388. In words: Compound was studied in P388 test system for the antitumor activity expressed as percent maximum life span of animals at a dose of 200 mg/kg. The test is classed as functional. The following applies: Mus musculus.
Test [7] concerns P388. In words: Compound was studied in P388 test system for the antitumor activity expressed as number of animals survived/Number of animals tested at a dose of 400 mg/kg; 5/5. The test is classed as functional, Mus musculus.
In test [8] the test system is P388. The test is described as follows: Compound was studied in P388 test system for the antitumor activity expressed as percent maximum life span of animals at a dose of 400 mg/kg. It is filed as functional. Particulars: Mus musculus.
Test [9] relates to P388. The test is described as follows: Compound was studied in P388 test system for the antitumor activity expressed as number of animals survived/Number of animals tested at a dose of 100 mg/kg; 5/6. The test is classed as functional, Mus musculus.
Test [10] deals with L1210. In words: Compound was studied in L1210 leukemia test system for the antitumor activity expressed as number animals survived/Number of animals tested at dose of 25 mg/kg; 5/6. It is filed as functional, Mus musculus.
Test [11] concerns P388. In words: Compound was studied in P388 test system for the antitumor activity expressed as number of animals survived/Number of animals tested at dose of 37.5 mg/kg; 6/6. The test is classed as functional, Mus musculus.
In test [12] the test system is L1210. The test is described as follows: Compound was studied in L1210 leukemia test system for the antitumor activity expressed as percent maximum life span of animals at dose of 25 mg/kg. The test is classed as functional. Particulars: Mus musculus.
The test system of test [13] is P388. The test is described as follows: Compound was studied in P388 test system for the antitumor activity expressed as percent maximum life span of animals at dose of 37.5 mg/kg. Particulars: Mus musculus. It is filed as functional.
In test [14] the test system is P388. The test is described as follows: Compound was studied in P388 test system for the antitumor activity expressed as number of animals survived/Number of animals tested at dose of 50 mg/kg; 6/6. The test is classed as functional, Mus musculus.
Test [15] concerns L1210. In words: Compound was studied in L1210 leukemia test system for the antitumor activity expressed as percent maximum life span of animals at dose of 50 mg/kg. The test is classed as functional. Particulars: Mus musculus.
The test system of test [16] is L1210. The test is described as follows: Compound was studied in L1210 leukemia test system for the antitumor activity expressed as number animals survived/Number of animals tested at dose of 50 mg/kg; 6/6. It is filed as functional, Mus musculus.
Test [17] concerns P388. The test is described as follows: Compound was studied in P388 test system for the antitumor activity expressed as percent maximum life span of animals at dose of 25 mg/kg. The test is classed as functional. The following applies: Mus musculus.
Test [18] has as its system P388. In words: Compound was studied in P388 test system for the antitumor activity expressed as number of animals survived/Number of animals tested at dose of 25 mg/kg; 6/6. The test is classed as functional, Mus musculus.
Test [19] has as its system Mus musculus. The test is described as follows: Compound was studied in CD8F test system for the antitumor activity expressed as percent maximum life span of animals at dose of 25 mg/kg. The test is classed as functional.
In test [20] the test system is L1210. In words: Compound was studied in L1210 leukemia test system for the antitumor activity expressed as number animals survived/Number of animals tested at dose of 200 mg/kg; 10/10. It is filed as functional, Mus musculus.
Test [21] deals with Mus musculus. In words: Compound was studied in CD8F test system for the antitumor activity expressed as number of animals survived/Number of animals tested at dose of 25 mg/kg; 10/10.
The test system of test [22] is L1210. In words: Compound was studied in L1210 leukemia test system for the antitumor activity expressed as percent maximum life span of animals at dose of 200 mg/kg. It is filed as functional. The following applies: Mus musculus.
Test [23] deals with L1210. In words: Compound was studied in L1210 leukemia test system for the antitumor activity expressed as number animals survived/Number of animals tested at dose of 200 mg/kg; 6/6. It is filed as functional, Mus musculus.
Test [24] deals with Lewis lung carcinoma cell line. The test is described as follows: Compound was studied in LL test system for the antitumor activity expressed as number of animals survived/Number of animals tested at dose of 12.5 mg/kg; 10/10. It is filed as functional, Mus musculus.
In test [25] the test system is L1210. The test is described as follows: Compound was studied in L1210 leukemia test system for the antitumor activity expressed as percent maximum life span of animals at dose of 400 mg/kg. The following applies: Mus musculus. The test is classed as functional.
The test system of test [26] is Lewis lung carcinoma cell line. In words: Compound was studied in LL test system for the antitumor activity expressed as percent maximum life span of animals at dose of 12.5 mg/kg. The test is classed as functional. Particulars: Mus musculus.
For test [27], the system named is P388. The test is described as follows: Compound was studied in P388 test system for the antitumor activity expressed as percent maximum life span of animals. The test is classed as functional, Mus musculus.
The test system of test [28] is Mus musculus. In words: Compound was studied in CD8F test system for the antitumor activity expressed as number of animals survived/Number of animals tested at dose of 250 mg/kg; 10/10. It is filed as functional.
Test [29] concerns P388. In words: Compound was studied in P388 test system for the antitumor activity expressed as number of animals survived/Number of animals tested at 200 mg/kg; 6/6. It is filed as functional, Mus musculus.
The test system of test [30] is B16. The test is described as follows: Compound was studied in B16 test system for the antitumor activity expressed as percent maximum life span of animals at dose of 200 mg/kg. The test is classed as functional. Particulars: Mus musculus.
Test [31] concerns Mus musculus. The test is described as follows: Compound was studied in CD8F test system for the antitumor activity expressed as percent maximum life span of animals at dose of 250 mg/kg. The test is classed as functional.
The subject of test [32] is L1210. The test is described as follows: Compound was studied in L1210 leukemia test system for the antitumor activity expressed as number animals survived/Number of animals tested at dose of 400 mg/kg; 6/6. The test is classed as functional, Mus musculus.
For test [33], the system named is B16. The test is described as follows: Compound was studied in B16 test system for the antitumor activity expressed as number of animals survived/Number of animals tested at dose of 200 mg/kg; […]. The test is classed as functional, Mus musculus.
Test [34] concerns P388. The test is described as follows: Compound was studied in P388 test system for the antitumor activity expressed as percent maximum life span of animals at dose of 50 mg/kg. The test is classed as functional. Particulars: Mus musculus.
For test [35], the system named is L1210. The test is described as follows: Compound was studied in L1210 leukemia test system for the antitumor activity expressed as number of animals survived/Number of animals tested at dose of 25 mg/kg; 5/6. It is filed as functional, Mus musculus.
The test system of test [36] is P388. The test is described as follows: Compound was studied in P388 test system for the antitumor activity expressed as number of animals survived/Number of animals tested at a dose of 200 mg/kg; 5/6. It is filed as functional, Mus musculus.
For test [37], the system named is L1210. In words: Compound was studied in L1210 leukemia test system for the antitumor activity expressed as number of animals survived/Number of animals tested at dose of 22.5 mg/kg; 6/6. It is filed as functional, Mus musculus.
Test [38] relates to P388. The test is described as follows: Compound was studied in P388 test system for the antitumor activity expressed as number of animals survived/Number of animals tested at dose of 120 mg/kg; 6/6. The test is classed as functional, Mus musculus.
Test [39] concerns P388. In words: Compound was studied in P388 test system for the antitumor activity expressed as percent maximum life span of animals at dose of 120 mg/kg. It is filed as functional. The following applies: Mus musculus.
Test [40] concerns L1210. The test is described as follows: Compound was studied in L1210 leukemia test system for the antitumor activity expressed as percent maximum life span of animals at dose of 22.5 mg/kg. The following applies: Mus musculus. It is filed as functional.

`CC(C)=C(C)OS(=O)(=O)C(F)(F)F`: the Ratio in test [1] worked out at 6. In [2], the ILS at 100 mg/kg amounted to 14%.

As to `CC(C)=COS(=O)(=O)C(F)(F)F`, in test [3], the Ratio is given as 6. The ILS at 50 mg/kg in [4] was -1%.

For the compound `CC(C)=CO[Si](C)(C)C`, in [5], the Ratio was 6. Also, in [6], the ILS at 200 mg/kg is 14%.

Regarding `O=S(=O)(OC1=CCCCCC1)C(F)(F)F`, in test [7], the Ratio came to 5. The ILS at 400 mg/kg in [8] turned out to be 15%.

As for `C[Si](C)(C)OC=C1CCCCC1`, the Ratio in test [1] is 6. The ILS at 100 mg/kg in [2] is 22%.

Consider `O=S(=O)(OC(=C(c1ccccc1)c1ccccc1)c1ccccc1)C(F)(F)F`, for which, in test [1], the Ratio came to 6. In addition, the ILS at 100 mg/kg in [2] is 16%.

Consider `C/C(=C\O[Si](C)(C)C)c1ccccc1`, for which the Ratio in test [9] is listed as 5. Besides, the ILS at 100 mg/kg in test [2] worked out at 8%.

With `O=C1OCC/C1=C\OS(=O)(=O)C(F)(F)F`, the Ratio is recorded as 5 in test [10] and 6 in [11]. Also, in [12], the ILS at 25 mg/kg turned out to be 6%. For the same compound, the ILS at 37.5 mg/kg in [13] stood at 26%.

Consider `CCOC1=CC(=O)/C(=C/O[Si](C)(C)C)CC1`, for which, in test [14], the Ratio amounted to 6.

`CC1(C)CC(=O)C=C(OS(=O)(=O)C(F)(F)F)C1`: the ILS at 50 mg/kg in test [15] was 3%. Moreover, the Ratio in test [16] and in test [18] was 6 in each case. In addition, the ILS at 25 mg/kg in test [17] worked out at 12%.

`C[Si](C)(C)O/C=C1\CCCCC1=O`: the ILS at 25 mg/kg in test [19] worked out at 21%. The values for the Ratio in test [20], in test [21] and in test [14] were 10, 1 and 6, respectively. For the same compound, the ILS at 200 mg/kg in test [22] is 5%.

For `O=S(=O)(OC1=CCCCC1)C(F)(F)F`, the Ratio in test [3] is reported as 6. Also, the ILS at 50 mg/kg in test [4] turned out to be 14%.

As to `O=C1O[C@@H]2CCCCC2/C1=C/OS(=O)(=O)C(F)(F)F` (stereo partly specified), the Ratio in test [23] amounted to 6. In addition, the ILS at 200 mg/kg in test [22] was 17%.

As to `C[Si](C)(C)O/C=C1\CCOC1=O`, the Ratio is on record as 10 in [24]; 10 in test [28]; 6 in test [29]; 6 in test [32]; 10 in test [33]. Besides, in test [25], the ILS at 400 mg/kg worked out at 12%. For the same compound, the ILS at 12.5 mg/kg in [26] worked out at 16%. For the same compound, the ILS in test [27] turned out to be 25%. Also, the ILS at 200 mg/kg in test [30] came to 6%. In addition, the ILS at 250 mg/kg in test [31] turned out to be 42%.

Turning to `CS(=O)(=O)O/C=C1\CCOC1=O`, the ILS at 50 mg/kg in [34] was 32%. Moreover, the Ratio in test [35] worked out at 5; in test [14], 6. In addition, in test [12], the ILS at 25 mg/kg came to 6%.

With `O=S(=O)(OC=C1CCCCC1)C(F)(F)F`, in test [6], the ILS at 200 mg/kg came out at 12%. Besides, the Ratio in test [36] is reported as 5.

Turning to `CS(=O)(=O)O/C=C1\C(=O)O[C@@H]2CCCCC12` (stereo partly specified), the Ratio in test [37] and in test [38] was 6 in each case. Also, the ILS at 120 mg/kg in test [39] came to 25%. Further, the ILS at 22.5 mg/kg in test [40] was 11%.

In the case of `O=S(=O)(O/C1=C/CCCCCC1)C(F)(F)F`, the results for the Ratio in test [1] and in [36] were 6 and 5, respectively. The ILS at 100 mg/kg in [2] came to 13%. Besides, in test [6], the ILS at 200 mg/kg came out at 14%.
